Experimental data as given in ChEMBL document CHEMBL4118289, “Developing hybrid molecule therapeutics for diverse enzyme inhibitory action: Active role of coumarin-based structural leads in drug discovery” (Bioorg Med Chem, 2018).
pIC50, pKi: −log10 of the molar value.

Tests used:
Tyrosinase = molecular target: T1, Tyrosinase (Agaricus bisporus, UniProt O42713); assay: Inhibition of mushroom tyrosinase using L-DOPA as substrate preincubated for 10 mins followed by substrate addition measured after 20 mins
T1 sequence (O42713 whole entry): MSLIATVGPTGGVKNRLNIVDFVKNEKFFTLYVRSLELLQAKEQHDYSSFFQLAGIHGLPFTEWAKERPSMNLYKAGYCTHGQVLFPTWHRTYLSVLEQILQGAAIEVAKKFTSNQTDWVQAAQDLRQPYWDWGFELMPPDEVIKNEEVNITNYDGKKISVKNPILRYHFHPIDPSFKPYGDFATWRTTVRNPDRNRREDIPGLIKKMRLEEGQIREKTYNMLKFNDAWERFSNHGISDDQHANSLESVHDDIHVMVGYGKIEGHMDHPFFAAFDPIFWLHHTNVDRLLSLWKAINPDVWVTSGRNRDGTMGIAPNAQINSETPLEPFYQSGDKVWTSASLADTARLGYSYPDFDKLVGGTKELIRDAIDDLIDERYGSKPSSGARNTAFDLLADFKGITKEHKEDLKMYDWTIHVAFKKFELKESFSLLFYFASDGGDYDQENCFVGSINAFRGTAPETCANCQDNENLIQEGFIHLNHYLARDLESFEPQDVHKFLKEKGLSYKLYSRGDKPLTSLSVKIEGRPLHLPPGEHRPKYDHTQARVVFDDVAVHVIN

[1] = molecular target: Aldo-keto reductase family 1 member B1 (Bos taurus, UniProt P16116); assay: Inhibition of calf lens ALR2 using D,L-glyceraldehyde as substrate preincubated for 5 mins followed by NADPH addition measured after 10 mins by UV spectrophotometric method
[2] = molecular target: Aldo-keto reductase family 1 member B1 (Bos taurus) (UniProt P16116); assay: Potency index, ratio of sulindac IC50 to compound IC50 for calf lens ALR2
Bos taurus = species: Bos taurus; assay: Selectivity index, ratio of IC50 for bovine kidney ALR1 to IC50 for calf lens ALR2
[3] = molecular target: Lipoxygenase (Glycine max) (UniProt Q39829); assay: Potency index, ratio of NDGA IC50 to compound IC50 for soybean lipoxygenase
Lipoxygenase = Lipoxygenase (Glycine max, UniProt Q39829)
Description: Inhibition of soybean lipoxygenase

Acetylcholinesterase [4] = molecular target: T2, Acetylcholinesterase (Homo sapiens, UniProt P22303); assay: Potency index, ratio of 7-MEOTA IC50 to compound IC50 for human erythrocyte AChE
T2 sequence (P22303 whole entry): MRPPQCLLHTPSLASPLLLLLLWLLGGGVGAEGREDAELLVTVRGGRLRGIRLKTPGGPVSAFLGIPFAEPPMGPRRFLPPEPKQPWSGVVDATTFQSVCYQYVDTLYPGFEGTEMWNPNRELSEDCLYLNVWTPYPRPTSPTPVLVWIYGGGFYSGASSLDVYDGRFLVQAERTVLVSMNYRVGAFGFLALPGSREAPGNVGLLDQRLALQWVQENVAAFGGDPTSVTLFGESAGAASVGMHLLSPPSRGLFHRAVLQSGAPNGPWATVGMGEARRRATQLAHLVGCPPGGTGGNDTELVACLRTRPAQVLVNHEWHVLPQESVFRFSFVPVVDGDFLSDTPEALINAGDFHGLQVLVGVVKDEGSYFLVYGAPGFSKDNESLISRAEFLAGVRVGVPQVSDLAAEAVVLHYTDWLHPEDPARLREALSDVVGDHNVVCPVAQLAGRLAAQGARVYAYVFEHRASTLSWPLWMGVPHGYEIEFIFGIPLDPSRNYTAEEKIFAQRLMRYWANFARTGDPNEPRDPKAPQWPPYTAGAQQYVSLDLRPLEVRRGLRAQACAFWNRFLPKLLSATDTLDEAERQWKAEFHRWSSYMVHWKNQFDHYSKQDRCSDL

Acetylcholinesterase [5] = molecular target: T2, Acetylcholinesterase
Cholinesterase [6] = molecular target: Cholinesterase (Homo sapiens, UniProt P06276); assay: Inhibition of human plasmatic BuChE using butylthiocholine as substrate preincubated for 5 mins followed by substrate addition measured at 1 min time interval by Ellman's method
Sequence of Cholinesterase (Homo sapiens, UniProt P06276) (P06276 whole entry): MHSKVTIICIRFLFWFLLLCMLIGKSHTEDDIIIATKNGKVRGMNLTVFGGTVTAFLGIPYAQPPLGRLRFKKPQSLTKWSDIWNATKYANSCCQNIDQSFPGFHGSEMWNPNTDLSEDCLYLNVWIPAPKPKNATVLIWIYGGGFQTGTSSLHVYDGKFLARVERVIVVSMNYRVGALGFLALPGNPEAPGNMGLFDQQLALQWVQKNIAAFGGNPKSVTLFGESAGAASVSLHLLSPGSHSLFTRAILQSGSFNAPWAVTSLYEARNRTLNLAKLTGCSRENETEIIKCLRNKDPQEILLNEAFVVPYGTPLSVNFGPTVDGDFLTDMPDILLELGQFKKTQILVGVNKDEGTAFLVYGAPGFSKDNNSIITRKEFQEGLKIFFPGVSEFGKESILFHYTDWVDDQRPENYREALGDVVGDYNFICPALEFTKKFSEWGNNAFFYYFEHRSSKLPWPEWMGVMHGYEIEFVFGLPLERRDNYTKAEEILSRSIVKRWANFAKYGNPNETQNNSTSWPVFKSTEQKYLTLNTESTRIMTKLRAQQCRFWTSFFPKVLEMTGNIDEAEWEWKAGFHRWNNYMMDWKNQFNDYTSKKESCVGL

[7] = Non-competitive inhibition of baker's yeast alpha-glucosidase using pNPG as substrate preincubated for 10 mins followed by substrate addition measured after 30 mins by Lineweaver-Burk plot analysis; parameters: species or system Saccharomyces cerevisiae
[8] = molecular target: Aldo-keto reductase family 1 member B1 (Bos taurus) (UniProt P16116); assay: Potency index, ratio of valproic acid IC50 to compound IC50 for bovine kidney ALR1
[9] = molecular target: Prostaglandin G/H synthase 1 (Homo sapiens, UniProt P23219); assay: Inhibition of human COX1 using [14C]arachidonic acid as substrate preincubated for 5 mins followed by substrate addition measured after 2 mins by TLC
Sequence of Prostaglandin G/H synthase 1 (P23219 whole entry): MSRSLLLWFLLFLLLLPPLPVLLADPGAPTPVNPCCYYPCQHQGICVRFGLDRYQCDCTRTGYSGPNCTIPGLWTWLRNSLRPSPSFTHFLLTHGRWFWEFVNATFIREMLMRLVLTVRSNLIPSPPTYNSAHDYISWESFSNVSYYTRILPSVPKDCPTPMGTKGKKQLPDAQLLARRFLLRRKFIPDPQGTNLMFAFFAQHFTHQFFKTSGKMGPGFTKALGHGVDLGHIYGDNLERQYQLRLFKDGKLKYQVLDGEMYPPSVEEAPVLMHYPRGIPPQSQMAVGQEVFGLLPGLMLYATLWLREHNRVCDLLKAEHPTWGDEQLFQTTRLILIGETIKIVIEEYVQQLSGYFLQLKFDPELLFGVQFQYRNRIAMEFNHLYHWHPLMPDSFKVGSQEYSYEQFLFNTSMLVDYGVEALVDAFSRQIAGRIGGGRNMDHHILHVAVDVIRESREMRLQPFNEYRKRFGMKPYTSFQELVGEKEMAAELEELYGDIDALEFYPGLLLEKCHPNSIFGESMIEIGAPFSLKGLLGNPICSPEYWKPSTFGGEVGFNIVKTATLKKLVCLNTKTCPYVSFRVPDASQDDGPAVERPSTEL

Rattus norvegicus [10] = assay: Antiinflammatory activity in albino rat assessed as inhibition of carrageenan-induced paw edema at 10 umol/kg, sc pretreated for 1 hr followed by carrageenan challenge measured after 4 hrs by plethysmographic method relative to control; assay type: functional
Saccharomyces cerevisiae = assay: Potency index, ratio of acarbose IC50 to compound IC50 for Saccharomyces cerevisiae alpha-glucosidase
[11] = molecular target: Intestinal-type alkaline phosphatase (Bos taurus, UniProt P19111)
Sequence of Intestinal-type alkaline phosphatase (P19111 whole entry): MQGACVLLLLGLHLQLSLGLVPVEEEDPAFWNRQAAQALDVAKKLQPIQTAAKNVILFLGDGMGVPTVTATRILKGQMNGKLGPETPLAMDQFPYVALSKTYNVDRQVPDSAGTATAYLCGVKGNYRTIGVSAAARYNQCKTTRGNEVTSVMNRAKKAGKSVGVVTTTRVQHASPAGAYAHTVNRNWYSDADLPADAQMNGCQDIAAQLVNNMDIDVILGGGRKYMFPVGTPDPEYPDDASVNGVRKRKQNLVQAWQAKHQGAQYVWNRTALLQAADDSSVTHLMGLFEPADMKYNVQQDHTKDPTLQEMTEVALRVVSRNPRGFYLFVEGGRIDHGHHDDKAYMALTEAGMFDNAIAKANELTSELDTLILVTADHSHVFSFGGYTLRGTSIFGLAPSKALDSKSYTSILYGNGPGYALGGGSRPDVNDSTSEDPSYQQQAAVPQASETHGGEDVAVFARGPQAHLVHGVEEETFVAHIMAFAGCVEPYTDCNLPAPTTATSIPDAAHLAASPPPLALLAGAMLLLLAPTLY
Description: Inhibition of calf intestinal alkaline phosphatase using pNPP as substrate preincubated for 10 mins followed by substrate addition measured after 30 mins

Rattus norvegicus [12] = assay: Antiinflammatory activity in Wistar rat assessed as inhibition of formalin-induced paw oedema at 20 mg/kg, po equiv of indomethacin pretreated for 1 hr followed by formalin addition measured up to 6 hrs post dose by plethysmographic method relative to control; assay type: functional
Homo sapiens = species: Homo sapiens; assay: Selectivity ratio of IC50 for human COX1 to IC50 for human COX2
Cholinesterase [13] = molecular target: Cholinesterase (Equus caballus, UniProt P81908); assay: Inhibition of equine serum BChE using butyrylthiocholine iodide as substrate preincubated for 15 mins followed by substrate addition by Ellman's method
Sequence of Cholinesterase (Equus caballus, UniProt P81908) (P81908 whole entry): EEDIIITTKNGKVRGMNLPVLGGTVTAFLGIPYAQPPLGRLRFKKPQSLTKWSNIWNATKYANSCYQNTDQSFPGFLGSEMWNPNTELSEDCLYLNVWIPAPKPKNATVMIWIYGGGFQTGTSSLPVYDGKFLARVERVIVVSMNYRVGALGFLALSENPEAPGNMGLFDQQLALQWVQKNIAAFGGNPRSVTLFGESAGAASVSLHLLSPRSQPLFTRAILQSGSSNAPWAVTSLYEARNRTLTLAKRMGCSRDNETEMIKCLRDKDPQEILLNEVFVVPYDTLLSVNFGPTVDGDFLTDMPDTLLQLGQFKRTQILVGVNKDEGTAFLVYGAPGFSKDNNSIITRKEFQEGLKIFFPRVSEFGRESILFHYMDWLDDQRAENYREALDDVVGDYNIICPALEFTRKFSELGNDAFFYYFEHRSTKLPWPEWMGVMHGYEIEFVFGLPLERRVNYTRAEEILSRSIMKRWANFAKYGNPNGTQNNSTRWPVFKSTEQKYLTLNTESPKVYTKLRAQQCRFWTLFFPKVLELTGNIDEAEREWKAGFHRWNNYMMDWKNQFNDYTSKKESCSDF

[14] = molecular target: Cholinesterase (Equus caballus) (UniProt P81908); assay: Potency index, ratio of galanthamine IC50 to compound IC50 for equine serum BChE
Sequence of Cholinesterase (Equus caballus) (P81908 whole entry): as above

COc1cc(C2CC(c3cc4ccccc4oc3=O)=NN2c2nc(-c3ccc(Br)cc3)cs2)ccc1OCc1ccccc1 (configuration not stated)
pIC50 (Tyrosinase): 8.34

O=c1oc2ccccc2cc1-c1nn(CNc2ccccc2Cl)c(=S)o1
pIC50 [1]: 6.51

C/C(=N\Nc1nc(-c2cc3ccccc3oc2=O)cs1)c1ccc(Br)cc1
Ratio IC50 [2]: 3 | Ratio IC50 (Bos taurus): 9.17 | pIC50 [1]: 6.96

O=c1oc2ccccc2c(O)c1/C=C/n1cnc2c(N3CCCCC3)ncnc21
Ratio IC50 [3]: 4 | pIC50 (Lipoxygenase): 5.20

O=C(Cc1cc(=O)oc2cc(O)ccc12)NCCCCCCCNC(=O)c1cccc2c(=O)c3ccccc3[nH]c12
Ratio IC50 (Acetylcholinesterase [4]): 3 | pIC50 (Acetylcholinesterase [5]): 5.23 | pIC50 (Cholinesterase [6]): 4.49

O=C(N/N=C/c1cc(Cl)cc(Cl)c1O)c1nc(-c2cc3ccccc3oc2=O)cs1
pKi [7]: 5.16

C/C(=N\Nc1nc(-c2cc3ccccc3oc2=O)cs1)c1ccc(Cl)cc1N
Ratio IC50 [8]: 125

C/C(=N\N=C1\CCC(=O)N1C)c1cc2ccccc2oc1=O
pIC50 [9]: 3.78 to 4.25 | inhibition in vivo at 10 µmol/kg (Rattus norvegicus [10]): 71.9%

O=c1oc2ccccc2c(O)c1/C=C/n1cnc2c(NCc3ccccc3)ncnc21
pIC50 (Lipoxygenase): 4.70

O=C(Cn1c(Cc2ccc(Br)cc2)nc2ccccc2c1=O)NNC(=O)c1cc2ccccc2oc1=O
Ratio IC50 (Saccharomyces cerevisiae): 4 to 5

Cc1ccc(-n2c(-c3cc4ccccc4oc3=O)cs/c2=N/NC(=O)c2cc3ccccc3oc2=O)c(C)c1
pIC50 [11]: 5.86

O=c1oc2ccccc2cc1-c1nn(CN2CCOCC2)c(=S)o1
pIC50 [1]: 6.47

CC1=CC/C(=N/N=C(\C)c2cc3ccccc3oc2=O)N1C
pIC50 [9]: 3.78 to 4.25 | inhibition in vivo at 10 µmol/kg (Rattus norvegicus [10]): 90%

CCOC(=O)C1=C(C)N(CC)/C(=N\N=C(/C)c2cc3ccccc3oc2=O)C1
pIC50 [9]: 3.78 to 4.25 | inhibition in vivo at 10 µmol/kg (Rattus norvegicus [10]): 94.5%

O=c1oc2cc(Cl)ccc2cc1-c1nc2ccccc2[nH]1
inhibition in vivo at 20 mg/kg (Rattus norvegicus [12]): 47%

C/C(=N\N=C1\CC(C)C(=O)N1C)c1cc2ccccc2oc1=O (configuration not stated)
pIC50 [9]: 3.78 to 4.25 | inhibition in vivo at 10 µmol/kg (Rattus norvegicus [10]): 92.2% | Ratio IC50 (Homo sapiens): 223

CCCCNCn1nc(-c2cc3ccccc3oc2=O)oc1=S
Ratio IC50 [8]: 17

O=C(Cn1c(Cc2ccc(Cl)c(Cl)c2)nc2ccccc2c1=O)NNC(=O)c1cc2ccccc2oc1=O
Ratio IC50 (Saccharomyces cerevisiae): 4 to 5

CCN1C(C)=CC/C1=N/N=C(\C)c1cc2ccccc2oc1=O
pIC50 [9]: 3.78 to 4.25 | inhibition in vivo at 10 µmol/kg (Rattus norvegicus [10]): 88.9%

O=C(Nc1ccc(F)cc1)Nc1nc(-c2cc3cc([N+](=O)[O-])ccc3oc2=O)cs1
pIC50 (Cholinesterase [13]): 5.31 | Ratio IC50 [14]: 4
